Laboratory results as given in ChEMBL document CHEMBL6182910, “Design, Synthesis, and Biological Evaluation of 4-(Difluoromethyl)-1H-imidazole-5-carboxylic Acids/4-(3-Cyanophenoxy)pyrimidine-5-carboxylic Acids as P2Y1 Receptor Antagonists for Ischemic Stroke Treatment” (J Med Chem, 2025).
Active and inactive are the calls of the source. The rule behind the calls is not given here.

Legend:
HT-22 = assay: Neuroprotective activity against H2O2-induced oxidative stress in mouse HT-22 cells assessed as cell viability at 10 uM preincubated for 2 hrs followed by H2O2 addition measured after 24 hrs by MTT assay (reference value: 55 +/- 4.6 %); format: functional; details: for viability at 10 µM: time 26 hrs, read-out: Activity; for Activity: time 26.0 hrs
Plasma = assay: Anti-platelet aggregation in platelet-rich plasma of male Japanese white rabbit assessed as inhibition of ADP-induced platelet aggregation preincubated for 15 mins followed by ADP addition measured up to 10 mins by Born's turbidometric method; format: functional, cell-free; details: Oryctolagus cuniculus

Row | SMILES | viability at 10 µM (HT-22) | IC50 (Plasma) | Activity (HT-22)
1 | N#Cc1ccc(-c2ncc(C(=O)O)c(Nc3ccccc3C#N)n2)cc1 | 97.8% | 9.74 µM | –
2 | CC(C)c1nc(-c2cccc(C#N)c2)n(OCc2ccc(C#N)cc2)c1C(=O)O | – | 1.62 µM | inactive
3 | CCN(CC)c1nc(COn2c(-c3cccc(C#N)c3)nc(C(F)F)c2C(=O)O)cs1 | – | 2.71 µM | inactive
4 | N#Cc1ccc(COn2c(-c3cccc(C#N)c3)nc(-c3cncs3)c2C(=O)O)cc1 | – | 2.63 µM | inactive
5 | N#Cc1ccc(COn2c(-c3cccc(C#N)c3)nc(-c3ccoc3)c2C(=O)O)cc1 | – | 7.61 µM | inactive
6 | N#Cc1ccc(COn2c(-c3cccc(C#N)c3)nc(C(F)F)c2C(=O)O)cc1 | 77.4% | 0.98 µM | –
7 | CCc1nc(-c2cccc(C#N)c2)n(OCc2ccc(C#N)cc2)c1C(=O)O | 70.6% | 4.09 µM | –
8 | N#Cc1ccc(COn2c(-c3cccc(C#N)c3)nc(-c3ccncc3)c2C(=O)O)cc1 | – | > 10 µM | inactive
9 | COCc1nc(-c2cccc(C#N)c2)n(OCc2ccc(C#N)cc2)c1C(=O)O | – | 1.62 µM | inactive
10 | N#Cc1ccc(COn2c(-c3cccc(C#N)c3)nc(-c3ccco3)c2C(=O)O)cc1 | 77.1% | > 10 µM | –
11 | N#Cc1ccc(COc2nc(-c3cccc(C#N)c3)ncc2C(=O)O)cc1 | – | 3.08 µM | inactive
12 | N#Cc1cccc(Nc2nc(-c3cccc(C#N)c3)ncc2C(=O)O)c1 | – | 7.79 µM | inactive
13 | N#Cc1ccc(COn2c(-c3cccc(C#N)c3)nc(C3CC3)c2C(=O)O)cc1 | – | 2.51 µM | inactive
14 | Cc1nc(-c2cccc(C#N)c2)nc(OCc2ccc(C#N)cc2)c1C(=O)O | – | 5.02 µM | inactive
15 | N#Cc1ccc(COn2c(-c3cccc(C#N)c3)nc(C(F)(F)F)c2C(=O)O)cc1 | 75.6% | 1.8 µM | –
16 | CC1(c2nc(-c3cccc(C#N)c3)n(OCc3ccc(C#N)cc3)c2C(=O)O)CC1 | 88.1% | 2.41 µM | –
17 | N#Cc1cccc(-c2nc(C(F)F)c(C(=O)O)n2OCc2cncs2)c1 | 64.9% | 3.77 µM | –
18 | N#Cc1ccc(COn2c(-c3cccc(C#N)c3)nc(-c3ccsc3)c2C(=O)O)cc1 | – | 1.39 µM | inactive
19 | N#Cc1ccc(COn2c(-c3cccc(C#N)c3)nc(-c3cccnc3)c2C(=O)O)cc1 | – | > 10 µM | inactive
20 | CS(=O)(=O)Nc1cccc(Oc2nc(-c3cccc(C#N)c3)ncc2C(=O)O)c1 | 79.1% | 8.08 µM | –
21 | N#Cc1ccc(Oc2nc(-c3cccc(C#N)c3)ncc2C(=O)O)cc1 | – | 4.82 µM | inactive

Row | SMILES | viability at 10 µM (HT-22) | IC50 (Plasma) | Activity (HT-22)
22 | N#Cc1ccc(-c2ncc(C(=O)O)c(OCc3ccccc3C#N)n2)cc1 | – | > 10 µM | inactive
23 | N#Cc1cccc(-c2nc(C(F)F)c(C(=O)O)n2OCc2nccs2)c1 | – | 2.79 µM | inactive
24 | N#Cc1ccc(COn2c(-c3cccc(C#N)c3)nc(C3CC(F)(F)C3)c2C(=O)O)cc1 | – | 3.11 µM | inactive
25 | Cc1sc(N2CCOCC2)nc1COn1c(-c2cccc(C#N)c2)nc(C(F)F)c1C(=O)O | 64.6% | 1.36 µM | –
26 | N#Cc1ccc(-c2ncc(C(=O)O)c(OCc3cccc(C#N)c3)n2)cc1 | 81.1% | 3.01 µM | –
27 | N#Cc1ccc(COn2c(-c3cccc(C#N)c3)nc(C3CCC3)c2C(=O)O)cc1 | – | 1.43 µM | inactive
28 | N#Cc1cccc(-c2ncc(C(=O)O)c(Oc3ccn[nH]3)n2)c1 | – | > 10 µM | inactive
29 | [2H]C([2H])([2H])c1nc(-c2cccc(C#N)c2)n(OCc2ccc(C#N)cc2)c1C(=O)O | 73.1% | 3.43 µM | –
30 | CC1(c2nc(-c3cccc(C#N)c3)n(OCc3ccc(C#N)cc3)c2C(=O)O)CCC1 | 72.4% | 2.99 µM | –
31 | N#Cc1ccc(Nc2nc(-c3cccc(C#N)c3)ncc2C(=O)O)cc1 | 84.9% | > 10 µM | –
32 | N#Cc1cccc(-c2ncc(C(=O)O)c(Oc3cccnc3)n2)c1 | 87.6% | > 10 µM | –
33 | N#Cc1cccc(-c2nc(C(F)F)c(C(=O)O)n2OCc2cscn2)c1 | 86.8% | 1.98 µM | –
34 | N#Cc1ccc(COn2c(-c3cccc(C#N)c3)nc(C3CCCCC3)c2C(=O)O)cc1 | – | 2.61 µM | inactive
35 | N#Cc1cccc(-c2ncc(C(=O)O)c(OCc3ccccc3C#N)n2)c1 | 95.8% | > 10 µM | –
36 | N#Cc1ccc(COn2c(-c3cccc(C#N)c3)nc(C3CCCC3)c2C(=O)O)cc1 | – | 2.53 µM | inactive
37 | N#Cc1cccc(-c2ncc(C(=O)O)c(Nc3cccnc3)n2)c1 | – | > 10 µM | inactive
38 | N#Cc1cccc(-c2nc(C(F)F)c(C(=O)O)n2OCc2csc(N3CCOCC3)n2)c1 | – | 4.7 µM | inactive
39 | N#Cc1ccc(COn2c(-c3cccc(C#N)c3)nc(-c3nccs3)c2C(=O)O)cc1 | – | 4.52 µM | inactive
40 | N#Cc1cccc(-c2nc(C(F)F)c(C(=O)O)n2OCc2ccccn2)c1 | 75.9% | > 10 µM | –
41 | N#Cc1cccc(-c2nc(C(F)F)c(C(=O)O)n2OCc2ccncc2)c1 | – | 5.34 µM | inactive
42 | N#Cc1ccc(COn2c(-c3cccc(C#N)c3)nc(-c3cccs3)c2C(=O)O)cc1 | – | > 10 µM | inactive

Row | SMILES | viability at 10 µM (HT-22) | IC50 (Plasma) | Activity (HT-22)
43 | N#Cc1ccc(-c2ncc(C(=O)O)c(Oc3ccccc3C#N)n2)cc1 | 96.2% | 5.68 µM | –
44 | N#Cc1ccc(-c2ncc(C(=O)O)c(Nc3cccc(C#N)c3)n2)cc1 | 97.2% | > 10 µM | –
45 | N#Cc1cccc(-c2ncc(C(=O)O)c(Oc3ccccc3C#N)n2)c1 | – | 3.37 µM | inactive
46 | N#Cc1cccc(-c2nc(C(F)F)c(C(=O)O)n2OCc2cnco2)c1 | – | 2.18 µM | inactive
47 | N#Cc1cccc(COc2nc(-c3cccc(C#N)c3)ncc2C(=O)O)c1 | 80.7% | 2.67 µM | –
48 | CN(C)c1nc(COn2c(-c3cccc(C#N)c3)nc(C(F)F)c2C(=O)O)cs1 | 62.4% | 3.71 µM | –
49 | N#Cc1ccc(COn2c(-c3cccc(C#N)c3)nc(C3CC3(F)F)c2C(=O)O)cc1 (centres undefined) | 60.1% | 2.88 µM | –
50 | N#Cc1ccc(-c2ncc(C(=O)O)c(Oc3cccc(C#N)c3)n2)cc1 | 98.9% | 4.36 µM | –
51 | N#Cc1ccc(Nc2nc(-c3ccc(C#N)cc3)ncc2C(=O)O)cc1 | 91.1% | 9.99 µM | –
52 | N#Cc1ccc(Oc2nc(-c3ccc(C#N)cc3)ncc2C(=O)O)cc1 | 91.3% | 4.62 µM | –
53 | N#Cc1ccc(COn2c(-c3cccc(C#N)c3)nc(-c3cnccn3)c2C(=O)O)cc1 | – | 4.11 µM | inactive
54 | N#Cc1ccc(COc2nc(-c3ccc(C#N)cc3)ncc2C(=O)O)cc1 | 88.2% | > 10 µM | –
55 | N#Cc1cccc(-c2nc(C(F)F)c(C(=O)O)n2OCc2cocn2)c1 | – | 1.69 µM | inactive
56 | N#Cc1ccc(COn2c(-c3cccc(C#N)c3)nc(-c3ccccn3)c2C(=O)O)cc1 | – | 9.2 µM | inactive
57 | N#Cc1cccc(-c2ncc(C(=O)O)c(Nc3ccccc3C#N)n2)c1 | 81% | > 10 µM | –
58 | CC(=O)Nc1cccc(Oc2nc(-c3cccc(C#N)c3)ncc2C(=O)O)c1 | 88.2% | 7.99 µM | –
59 | N#Cc1cccc(-c2nc(C(F)F)c(C(=O)O)n2OCc2cccnc2)c1 | – | > 10 µM | inactive
60 | CC(C)Cc1nc(-c2cccc(C#N)c2)n(OCc2ccc(C#N)cc2)c1C(=O)O | 76.1% | 2.08 µM | –
61 | N#Cc1ccc(COn2c(-c3cccc(C#N)c3)nc(-c3ccccc3)c2C(=O)O)cc1 | – | 3.33 µM | inactive
62 | N#Cc1ccc(COn2c(-c3cccc(C#N)c3)nc(-c3cscn3)c2C(=O)O)cc1 | – | > 10 µM | inactive
